{"source": "patent US9034921B2", "about": "“Diphenylmethane derivatives as SGLT2 inhibitors” (GREEN CROSS CORPORATION, priority 2011, dated 2015)", "data": [{"molecular_target": "human SGLT2 (Homo sapiens (Human), UniProt P31639)", "sequence (P31639 whole entry)": "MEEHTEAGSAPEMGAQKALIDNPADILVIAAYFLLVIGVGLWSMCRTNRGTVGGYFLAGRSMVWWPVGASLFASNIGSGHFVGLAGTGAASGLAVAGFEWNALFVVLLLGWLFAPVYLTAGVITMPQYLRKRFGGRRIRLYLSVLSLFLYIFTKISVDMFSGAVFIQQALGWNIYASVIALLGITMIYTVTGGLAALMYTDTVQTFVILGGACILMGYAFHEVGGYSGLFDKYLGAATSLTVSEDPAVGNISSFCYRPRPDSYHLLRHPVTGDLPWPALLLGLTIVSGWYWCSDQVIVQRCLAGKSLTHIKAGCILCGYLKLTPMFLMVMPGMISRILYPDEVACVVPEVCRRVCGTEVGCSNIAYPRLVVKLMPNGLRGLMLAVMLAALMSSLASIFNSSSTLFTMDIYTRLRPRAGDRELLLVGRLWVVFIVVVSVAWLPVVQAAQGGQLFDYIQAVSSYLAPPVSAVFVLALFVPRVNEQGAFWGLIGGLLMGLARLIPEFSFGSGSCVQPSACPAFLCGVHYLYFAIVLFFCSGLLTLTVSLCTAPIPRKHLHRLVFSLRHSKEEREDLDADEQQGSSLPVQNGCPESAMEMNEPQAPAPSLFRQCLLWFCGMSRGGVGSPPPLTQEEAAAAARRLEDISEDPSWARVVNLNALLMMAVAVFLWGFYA", "test": "Inhibitory effects on human SGLT2 activities (14C-AMG uptake, sodium-dependent glucose transport assay)", "assay_type": "cell-based", "conditions": "CHO cells stably expressing hSGLT2, 37° C., 2 h, single determinations", "source_text": "Test 1: Cloning and Cell Line Construction for Human SGLT2\nHuman SGLT2 (hSGLT2) gene was amplified by PCR from cDNA-Human Adult Normal Tissue Kidney (Invitrogen). The hSGLT2 sequence was cloned into pcDNA3.1(+) for mammalian expression and stably transfected into chinese hamster ovary (CHO) cells. SGLT2-expressing clones were selected based on resistance to G418 antibiotic (Geneticin) and activity in the ^14C-α-methyl-D-glucopyranoside (^14C-AMG) uptake assay.\nTest 2: Inhibitory Effects on Human SGLT2 Activities\nFor sodium-dependent glucose transport assay, cells expressing hSGLT2 were seeded into a 96-well culture plate at a density of 5×10^4 cells/well in RPMI medium 1640 containing 10% fetal bovine serum. The cells were used 1 day after plating. They were incubated in pretreatment buffer (10 mM HEPES, 5 mM Tris, 140 mM choline chloride, 2 mM KCl, 1 mM CaCl2, and 1 mM MgCl2, pH 7.4) at 37° C. for 10 min. They were then incubated in uptake buffer (10 mM HEPES, 5 mM Tris, 140 mM NaCl, 2 mM KCl, 1 mM CaCl2, 1 mM MgCl2, and 1 mM ^14C-nonlabeled AMG pH 7.4) containing ^14C-labeled AMG (8 μM) and the inventive compound or dimethyl sulfoxide (DMSO) vehicle at 37° C. for 2 h. Cells were washed twice with washing buffer (pretreatment buffer containing 10 mM AMG at room temperature) and then the radioactivity was measured using a liquid scintillation counter. IC50 was determined by nonlinear regression analysis using GraphPad PRISM [Katsuno, K. et al. J. Pharmacol. Exp. Ther. 2007, 320, 323-330; Han, S. et al. Diabetes, 2008, 57, 1723-1729].", "units": {"IC50": "nM"}, "values": [{"smiles": "OC[C@H]1O[C@@H](c2cc(Cc3ccc(O)cc3)c(Cl)c3c2CCO3)[C@H](O)[C@@H](O)[C@@H]1O", "note": "[Example E192, (2S,3R,4R,5S,6R)-2-(7-Chloro-6-(4-hydroxybenzyl)-2,3-dihydrobenzofuran-4-yl)-6-(hydroxymethyl)tetrahydro-2H-pyran-3,4,5-triol]", "IC50": 1.63}, {"smiles": "COc1cc(Cl)c(Cc2ccc3c(c2)OCCO3)cc1[C@@H]1O[C@H](OC)[C@@H](O)[C@H](O)[C@H]1O", "note": "[Example E096, (2S,3R,4R,5S,6S)-2-(4-Chloro-5-((2,3-dihydrobenzo[b][1,4]dioxin-6-yl)methyl)-2-methoxyphenyl)-6-methoxy-tetrahydro-2H-pyran-3,4,5-triol]", "IC50": 18.5}, {"smiles": "CC(F)(F)c1ccc(Cc2cc([C@@H]3O[C@H](CO)[C@@H](O)[C@H](O)[C@H]3O)c3c(c2Cl)OCC3)cc1", "note": "[Example E177, (2S,3R,4R,5S,6R)-2-(7-Chloro-6-(4-(1,1-difluoroethyl)benzyl)-2,3-dihydrobenzofuran-4-yl)-6-(hydroxymethyl)tetrahydro-2H-pyran-3,4,5-triol]", "IC50": 0.91}, {"smiles": "CCCc1ccc(Cc2cc([C@@H]3O[C@H](CO)[C@@H](O)[C@H](O)[C@H]3O)c3c(c2Cl)OCC3)cc1", "note": "[Example E187, (2S,3R,4R,5S,6R)-2-(7-Chloro-6-(4-propylbenzyl)-2,3-dihydrobenzofuran-4-yl)-6-(hydroxymethyl)tetrahydro-2H-pyran-3,4,5-triol]", "IC50": 1.17}, {"smiles": "CCOc1ccc(Cc2cc([C@@H]3O[C@H](CO)[C@@H](O)[C@H](O)[C@H]3O)c3c(c2Br)CCC3)cc1", "note": "[Example E003, (2S,3R,4R,5S,6R)-2-(7-Bromo-6-(4-ethoxybenzyl)-2,3-dihydro-1H-inden-4-yl)-6-(hydroxymethyl)tetrahydro-2H-pyran-3,4,5-triol]", "IC50": 0.738}, {"smiles": "CNc1ccc(Cc2cc([C@@H]3O[C@H](CO)[C@@H](O)[C@H](O)[C@H]3O)c3c(c2Cl)CCC3)cc1", "note": "[Example E140, (2S,3R,4R,5S,6R)-2-(7-Chloro-6-(4-(methylamino)benzyl)-2,3-dihydro-1H-inden-4-yl)-6-(hydroxymethyl)tetrahydro-2H-pyran-3,4,5-triol 2,2,2-trifluoroacetate]", "IC50": 1.34}, {"smiles": "CCc1ccc(Cc2cc([C@@H]3O[C@H](CO)[C@@H](O)[C@H](O)[C@H]3O)cc(-c3ccccc3)c2C)cc1", "note": "[Example E076]", "IC50": 9.63}, {"smiles": "OC[C@H]1O[C@@H](c2cc(Cc3ccc(C(F)(F)F)cc3)c(Cl)c3c2OCC3)[C@H](O)[C@@H](O)[C@@H]1O", "note": "[Example E122, (2S,3R,4R,5S,6R)-2-(4-Chloro-5-(4-(trifluoromethyl)benzyl)-2,3-dihydrobenzofuran-7-yl)-6-(hydroxymethyl)tetrahydro-2H-pyran-3,4,5-triol]", "IC50": 1.97}, {"smiles": "OC[C@H]1O[C@@H](c2cc(Cc3ccc4c(c3)OCCO4)c(Cl)c3c2OCC3)[C@H](O)[C@@H](O)[C@@H]1O", "note": "[Example E191, (2S,3R,4R,5S,6R)-2-(4-Chloro-5-((2,3-dihydrobenzo[b][1,4]dioxin-6-yl)methyl)-2,3-dihydrobenzofuran-7-yl)-6-(hydroxymethyl)tetrahydro-2H-pyran-3,4,5-triol]", "IC50": 1.57}, {"smiles": "CCOc1ccc(Cc2cc([C@@H]3O[C@H](CO)[C@@H](O)[C@H](O)[C@H]3O)c3sccc3c2Cl)cc1", "note": "[Example E046, (2S,3R,4R,5S,6R)-2-(4-Chloro-5-(4-ethoxybenzyl)benzo[b]thiophen-7-yl)-6-(hydroxymethyl)tetrahydro-2H-pyran-3,4,5-triol]", "IC50": 275}, {"smiles": "OC[C@H]1O[C@@H](c2ccc(Cl)c(Cc3ccc4c(cnn4Cc4ccccc4)c3)c2)[C@H](O)[C@@H](O)[C@@H]1O", "note": "[Example E033, (2S,3R,4R,5S,6R)-2-(3-((1-Benzyl-1H-indazol-5-yl)methyl)-4-chlorophenyl)-6-(hydroxymethyl)tetrahydro-2H-pyran-3,4,5-triol]", "IC50": 2.39}]}]}
